Measurements as given in PMC8851638 (ACS Omega, 2022).
Converted amounts (≈) assume the structure as drawn. “And” between values parts separate entries of the source, which are not always exact repeats. Equal entries are not always repeated.

What was measured:
[1] = system: C. albicans100 (MDR00100); assay: Agar well-diffusion antimicrobial sensitivity assay; type: cell-based, Candida albicans; settings: for Inhibition Zone (IZ): C. albicans100, 100 mg/mL in DMSO, 50 μL per well, ± SD
A. baumannii (MDR00521) [2] = assay: as above; type: cell-based; settings: 100 mg/mL in DMSO, 50 μL per well, ± SD
S. aureus (MDR00231) [3] = assay: as above; type: cell-based, Staphylococcus aureus; settings: for Inhibition Zone (IZ): S. aureus, 100 mg/mL in DMSO, 50 μL per well, ± SD
B. subtilis (MDR00423) [4] = assay: as above; type: cell-based; settings: 100 mg/mL in DMSO, 50 μL per well, ± SD
[5] = system: S. epidermidis (MDR00223); assay: as above; type: cell-based, Staphylococcus epidermidis; settings: for Inhibition Zone (IZ): S. epidermidis, 100 mg/mL in DMSO, 50 μL per well, ± SD
E. coli (MDR00501) [6] = assay: as above; type: cell-based; settings: for Inhibition Zone (IZ): E. coli, 100 mg/mL in DMSO, 50 μL per well, ± SD
[7] = system: C. albicans200 (MDR00200); assay: as above; type: cell-based, Candida albicans; settings: for Inhibition Zone (IZ): C. albicans200, 100 mg/mL in DMSO, 50 μL per well, ± SD
K. pneumoniae (MDR00244) [8] = assay: as above; type: cell-based; settings: 100 mg/mL in DMSO, 50 μL per well, ± SD
[9] = system: C. albicans100 (MDR00100); assay: MIC and MFC by broth microdilution; type: cell-based, Candida albicans
C. albicans100 = assay: Single-step resistance selection; type: cell-based, Candida albicans; settings: 4 × MIC, 48 h
S. aureus biofilm = assay: Staphylococcus biofilm mass reduction; type: cell-based; settings: at their MIC
[10] = system: C. albicans200 (MDR00200); assay: MIC and MFC by broth microdilution; type: cell-based, Candida albicans
[11] = system: S. epidermidis (MDR00223); assay: MIC and MBC by broth microdilution; type: cell-based, Staphylococcus epidermidis
B. subtilis (MDR00423) [12] = assay: MIC and MBC by broth microdilution; type: cell-based
B. subtilis = assay: Single-step resistance selection; type: cell-based; settings: 4 × MIC, 48 h
[13] = system: clinical pathogenic isolates; assay: Single-step resistance selection, whole panel; type: cell-based; settings: 4 × MIC
[14] = system: Vero: green monkey kidney; assay: In vitro cytotoxicity on normal cell line; type: cell-based
[15] = In vitro cytotoxicity on normal cell line; type: cell-based, green monkey; settings: green monkey, Vero kidney cells
S. aureus [16] = assay: Checkerboard combination assay with Ciprofloxacin; type: cell-based, Staphylococcus aureus
S. aureus [17] = assay: Single-step resistance selection; type: cell-based, Staphylococcus aureus; settings: 4 × MIC, 48 h
K. pneumoniae (MDR00244) [18] = assay: MIC and MBC by broth microdilution; type: cell-based; settings: ratio in parentheses
E. coli (MDR00501) [19] = assay: MIC and MBC by broth microdilution; type: cell-based
A. baumannii [20] = assay: Single-step resistance selection; type: cell-based; settings: 4 × MIC, 48 h
A. baumannii (MDR00521) [21] = assay: MIC and MBC by broth microdilution; type: cell-based; settings: ratio in parentheses
S. aureus (MDR00231) [22] = assay: MIC and MBC by broth microdilution; type: cell-based, Staphylococcus aureus
Gram-negative bacteria = assay: MIC broth microdilution, Gram-negative panel; type: cell-based; settings: Gram-negative bacteria used in this study
C. albicans200 [23] = assay: Single-step resistance selection; type: cell-based, Candida albicans; settings: 4 × MIC, 48 h
E. coli DNA gyrase = E. coli DNA gyrase (Escherichia coli, UniProt P0AES4+P0AES6); assay: DNA gyrase inhibition; type: biochemical
E. coli DNA gyrase, sequence (P0AES4 whole entry, one chain of several): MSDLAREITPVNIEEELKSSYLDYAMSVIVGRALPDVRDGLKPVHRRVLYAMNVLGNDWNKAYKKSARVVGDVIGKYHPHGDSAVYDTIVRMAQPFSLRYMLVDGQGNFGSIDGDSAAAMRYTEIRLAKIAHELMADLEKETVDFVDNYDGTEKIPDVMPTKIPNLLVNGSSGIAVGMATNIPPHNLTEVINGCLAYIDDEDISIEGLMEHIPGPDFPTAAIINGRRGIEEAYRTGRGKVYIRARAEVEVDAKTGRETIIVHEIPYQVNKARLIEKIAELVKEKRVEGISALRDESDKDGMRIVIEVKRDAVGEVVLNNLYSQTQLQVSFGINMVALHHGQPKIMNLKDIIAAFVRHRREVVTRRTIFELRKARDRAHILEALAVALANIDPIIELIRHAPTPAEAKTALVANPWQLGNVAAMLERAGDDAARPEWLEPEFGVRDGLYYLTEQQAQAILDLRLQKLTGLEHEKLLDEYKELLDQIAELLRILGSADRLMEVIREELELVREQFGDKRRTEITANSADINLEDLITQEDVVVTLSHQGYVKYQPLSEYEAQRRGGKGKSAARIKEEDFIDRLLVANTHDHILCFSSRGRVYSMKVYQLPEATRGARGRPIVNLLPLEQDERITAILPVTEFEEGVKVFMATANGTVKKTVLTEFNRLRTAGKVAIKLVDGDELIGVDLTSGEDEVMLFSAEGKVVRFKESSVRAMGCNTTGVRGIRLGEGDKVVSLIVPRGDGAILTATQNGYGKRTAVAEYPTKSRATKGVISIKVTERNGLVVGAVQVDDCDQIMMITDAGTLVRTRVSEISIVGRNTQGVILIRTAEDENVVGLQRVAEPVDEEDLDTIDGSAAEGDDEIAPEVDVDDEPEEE

C. albicans200 [24] = assay: Checkerboard combination assay with Ketoconazole; type: cell-based, Candida albicans
A. baumannii [25] = assay: Checkerboard combination assay with Ciprofloxacin; type: cell-based
RBCs = assay: Hemolytic assay; type: cell-based; settings: human RBCs; compounds 1.0 mg/mL; Triton X-100 0.1% v/v; 37 °C, 35 min
E. coli [26] = assay: Single-step resistance selection; type: cell-based; settings: 4 × MIC, 48 h
[27] = biological target: T1, dihydrofolate reductase (DHFR) (Homo sapiens, UniProt P00374); assay: DHFR inhibition; type: biochemical
T1 sequence (P00374 1-187): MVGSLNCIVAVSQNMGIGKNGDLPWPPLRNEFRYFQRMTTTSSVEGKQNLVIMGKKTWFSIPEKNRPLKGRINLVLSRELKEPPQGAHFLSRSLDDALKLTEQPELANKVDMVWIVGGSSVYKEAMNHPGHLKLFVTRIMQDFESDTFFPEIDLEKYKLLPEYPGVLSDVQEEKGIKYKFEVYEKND

[28] = system: BNL: mouse normal liver cells; assay: In vitro cytotoxicity on normal cell line; type: cell-based
[29] = In vitro cytotoxicity on normal cell line; type: cell-based, mouse; settings: mouse, BNL normal liver cells
E. coli [30] = assay: Checkerboard combination assay with Ciprofloxacin; type: cell-based
S. epidermidis = assay: Single-step resistance selection; type: cell-based, Staphylococcus epidermidis; settings: 4 × MIC, 48 h
K. pneumoniae = assay: Single-step resistance selection; type: cell-based; settings: 4 × MIC, 48 h
S. epidermidis biofilm = assay: Staphylococcus biofilm mass reduction; type: cell-based; settings: at their MIC
[31] = system: H9C2: rat heart/myocardium; assay: In vitro cytotoxicity on normal cell line; type: cell-based
[32] = In vitro cytotoxicity on normal cell line; type: cell-based, rat; settings: rat, H9C2 heart/myocardium cells
[33] = Candida albicans, read-out: Inhibition Zone (IZ)

## N#CC=c1[nH]c(=O)c(=Cc2cn(-c3ccccc3)nc2-c2ccccc2)s1 [Compound 3a, 2-(5-((1,3-Diphenyl-1H-pyrazol-4-yl)methylene)-4-oxothiazolidin-2-ylidene)acetonitrile]
[1]
  Inhibition Zone (IZ): -ve
A. baumannii (MDR00521) [2]
  Inhibition Zone (IZ): -ve
S. aureus (MDR00231) [3]
  Inhibition Zone (IZ): -ve
B. subtilis (MDR00423) [4]
  Inhibition Zone (IZ): -ve
[5]
  Inhibition Zone (IZ): -ve
E. coli (MDR00501) [6]
  Inhibition Zone (IZ): -ve
[7]
  Inhibition Zone (IZ): -ve
K. pneumoniae (MDR00244) [8]
  Inhibition Zone (IZ): -ve

## Cc1c(NC(=O)CC2=NC(=O)CS2)c(=O)n(-c2ccccc2)n1C [Compound 10, N-(1,5-Dimethyl-3-oxo-2-phenyl-2,3-dihydro-1H-pyrazol-4-yl)-2-(4-oxo-4,5-dihydrothiazol-2-yl)acetamide]
[9]; C. albicans100, ratio in parentheses
  MFC/MIC: 2
[9]; Candida albicans, read-out: MIC (mean ± SEM), C. albicans100, broth microdilution
  MIC: 0.95 ± 0.3 µg/mL (≈ 2.76 µM)
C. albicans100
  Single-step resistance frequency (mutation frequency): 3.33 × 10^–8
S. aureus biofilm
  reduction of biofilm formation: 55.6%
[10]; C. albicans200, ratio in parentheses
  MFC/MIC: 1
[10]; Candida albicans, read-out: MIC (mean ± SEM), C. albicans200, broth microdilution
  MIC: 0.47 ± 0.1 µg/mL (≈ 1.36 µM)
[11]; S. epidermidis, ratio in parentheses
  MBC/MIC: 1
[11]; Staphylococcus epidermidis, read-out: MIC (mean ± SEM), S. epidermidis, broth microdilution
  MIC: 0.97 ± 0.4 µg/mL (≈ 2.82 µM)
[1]; [33]
  zone of inhibition at 100000 µg/mL: 28 ± 0.88 mm
B. subtilis (MDR00423) [12]; B. subtilis, ratio in parentheses
  MBC/MIC: 2
B. subtilis (MDR00423) [12]; Bacillus subtilis, read-out: MIC (mean ± SEM), B. subtilis, broth microdilution
  MIC: 0.98 ± 0.1 µg/mL (≈ 2.85 µM)
B. subtilis
  Single-step resistance frequency (mutation frequency): 3.50 × 10^–8
[13]
  mutation frequency, range over panel: 2.41 × 10^–8 to 3.50 × 10^–8
[14]; IC50 of Vero / IC50 of DHFR
  Selectivity index against DHFR: 49.33
[14]; IC50 of Vero / IC50 of DNA gyrase
  Selectivity index against DNA gyrase: 2.42
[15]
  IC50 at 72 h: 70.06 ± 0.34 µM
S. aureus [16]
  combination effect: S (S: synergism)
  fractional inhibitory concentration index (FICI): 0.5
S. aureus (MDR00231) [3]; Staphylococcus aureus, read-out: Inhibition Zone (IZ)
  zone of inhibition at 100000 µg/mL: 27 ± 0.21 mm
S. aureus [17]
  Single-step resistance frequency (mutation frequency): 2.41 × 10^–8
K. pneumoniae (MDR00244) [18]
  MBC/MIC: 1
E. coli (MDR00501) [19]; E. coli, ratio in parentheses
  MBC/MIC: 1
E. coli (MDR00501) [19]; Escherichia coli, read-out: MIC (mean ± SEM), E. coli, broth microdilution
  MIC: 0.46 ± 0.4 µg/mL (≈ 1.34 µM)
A. baumannii [20]
  Single-step resistance frequency (mutation frequency): 2.53 × 10^–8
[5]; Staphylococcus epidermidis, read-out: Inhibition Zone (IZ)
  zone of inhibition at 100000 µg/mL: 26 ± 0.4 mm
A. baumannii (MDR00521) [21]
  MBC/MIC: 0.5
S. aureus (MDR00231) [22]; S. aureus, ratio in parentheses
  MBC/MIC: 1
S. aureus (MDR00231) [22]; Staphylococcus aureus, read-out: MIC (mean ± SEM), S. aureus, broth microdilution
  MIC: 0.95 ± 0.2 µg/mL (≈ 2.76 µM)
E. coli (MDR00501) [6]; Escherichia coli, read-out: Inhibition Zone (IZ)
  zone of inhibition at 100000 µg/mL: 25 ± 0.22 mm
Gram-negative bacteria
  MIC, range over panel: 0.43 to 0.98 µg/mL
[7]; [33]
  zone of inhibition at 100000 µg/mL: 30 ± 0.55 mm
C. albicans200 [23]
  Single-step resistance frequency (mutation frequency): 3.50 × 10^–8
E. coli DNA gyrase
  IC50: 28.88 ± 0.12 µM
C. albicans200 [24]
  combination effect: S (S: synergism)
  fractional inhibitory concentration index (FICI): 0.5
A. baumannii [25]
  combination effect: S (S: synergism)
  fractional inhibitory concentration index (FICI): 0.5
RBCs
  %lysis of RBCs: 11.66% and 11.66 ± 0.231%
E. coli [26]
  Single-step resistance frequency (mutation frequency): 2.60 × 10^–8
[27]
  IC50: 1420 ± 230 nM
[28]; IC50 of BNL / IC50 of DHFR
  Selectivity index against DHFR: 69.64
[28]; IC50 of BNL / IC50 of DNA gyrase
  Selectivity index against DNA gyrase: 3.42
[29]
  IC50 at 72 h: 98.9 ± 1.54 µM
E. coli [30]
  combination effect: S (S: synergism)
  fractional inhibitory concentration index (FICI): 0.5
S. epidermidis
  Single-step resistance frequency (mutation frequency): 3.00 × 10^–8
K. pneumoniae
  Single-step resistance frequency (mutation frequency): 2.61 × 10^–8
S. epidermidis biofilm
  reduction of biofilm formation: 53.3%
[31]; IC50 of H9C2 / IC50 of DHFR
  Selectivity index against DHFR: 70.26
[31]; IC50 of H9C2 / IC50 of DNA gyrase
  Selectivity index against DNA gyrase: 3.45
[32]
  IC50 at 72 h: 99.8 ± 1.84 µM

## Cc1c(NN=C2SC3=C(C#N)C(c4ccccc4)C(C#N)=C(N)N3C2=O)c(=O)n(-c2ccccc2)n1C (stereo not drawn) [Compound 16a, 5-Amino-2-(2-(1,5-dimethyl-3-oxo-2-phenyl-2,3-dihydro-1H-pyrazol-4-yl)hydrazono)-3-oxo-7-phenyl-2,3-dihydro-7H-thiazolo[3,2-a]pyridine-6,8-dicarbonitrile]
[1]
  Inhibition Zone (IZ): -ve
A. baumannii (MDR00521) [2]
  Inhibition Zone (IZ): -ve
S. aureus (MDR00231) [3]
  Inhibition Zone (IZ): -ve
B. subtilis (MDR00423) [4]
  Inhibition Zone (IZ): -ve
[5]
  Inhibition Zone (IZ): -ve
E. coli (MDR00501) [6]
  Inhibition Zone (IZ): -ve
[7]
  Inhibition Zone (IZ): -ve
K. pneumoniae (MDR00244) [8]
  Inhibition Zone (IZ): -ve

## Cc1c(NN=C2SC3=C(C#N)C(c4ccc(Cl)cc4)C(C#N)=C(N)N3C2=O)c(=O)n(-c2ccccc2)n1C (stereo not drawn) [Compound 16b, 5-Amino-7-(4-chlorophenyl)-2-(2-(1,5-dimethyl-3-oxo-2-phenyl-2,3-dihydro-1H-pyrazol-4-yl)hydrazono)-3-oxo-2,3-dihydro-7H-thiazolo[3,2-a]pyridine-6,8-dicarbonitrile]
[1]
  Inhibition Zone (IZ): -ve
A. baumannii (MDR00521) [2]
  Inhibition Zone (IZ): -ve
S. aureus (MDR00231) [3]
  Inhibition Zone (IZ): -ve
B. subtilis (MDR00423) [4]
  Inhibition Zone (IZ): -ve
[5]
  Inhibition Zone (IZ): -ve
E. coli (MDR00501) [6]
  Inhibition Zone (IZ): -ve
[7]
  Inhibition Zone (IZ): -ve
K. pneumoniae (MDR00244) [8]
  Inhibition Zone (IZ): -ve
